Here are results for 1 compound from patent US20260285903A1, “SYNTHESIZED BIOLOGICALLY ACTIVE COMPOUNDS AND METHODS OF MAKING AND USING” (Georgia State University Research Foundation, Inc., priority 2023, published 2026).

One data set has as its system Caco-2/BBe cells. In words: MTT viability assay, 2D culture. It counts as cell-based, human. On the procedure: (§1) PBMCs were provided by STEMCELL Technologies (STEMCELL Canada Inc.) and maintained in ImmunoCult™-XF T-cell Expansion Medium (Cat #10981). HIEC-6 cells were maintained in OptiMEM 1 Reduced Serum Medium supplemented with 20 mM HEPES, 10 mM GlutaMAX, 10 ng/mL Epidermal Growth Factor, 4% (v/v) fetal bovine serum (FBS), and 1% penicillin-streptomycin (PS). HCT-116 cells were maintained in ATCC-formulated McCoy's 5a medium, supplemented with 10% (v/v) FBS and 1% PS. Caco-2/BBe cells were grown in DMEM supplemented with 10% (v/v) FBS and 1% PS (v/v). Human colon cancer stem cells (HC-CSC) were maintained in complete growth media with serum and antibiotics (Cat #M36112-39S) from Celprogen Inc. (Torrance, CA, USA).
(§2) The […] (MTT) assay was used to study the effects of M13 on the viability of four 2D-cultured human intestinal cell lines (HIEC-6, HCT-116, Caco-2/BBe, and HC-CSC).
Next, the anti-cancer activities of free M13, NL, and M13-NL were compared against Caco-2/BBe cells.
In general terms: Formazan colour is commonly taken as a measure of viable cells.

The next data set deals with HC-CSC. As to the kind of experiment: MTT viability assay, 2D culture. Type of data set: cell-based, human. As to the method:
as §1, §2

In a further data set the test system is HCT-116. In words: MTT viability assay, 2D culture. It counts as cell-based, human. As to the method:
as §1, §2

The subject of data set [1] is AOM/DSS-induced colon tumors. As to the kind of experiment: AOM/DSS-induced CAC mouse model, oral gavage. The following applies: 5 mg/kg oral, vs AOM/DSS group. Type of data set: in vivo, C57BL/6J mice. As to the method:
Female C57BL/6J mice (Strain #:000664, The Jackson Laboratory, Bar Harbor, ME), female interleukin-10 knock-out (IL10^−/− mice, B6.129P2-IL10 tmlCgn, The Jackson Laboratory), and female CD-1 mice (CD-1@IGS Mouse, outbred, Charles River) were housed in a clean facility maintained at 22±2° C. and 30-70% relative humidity with a 12-h light/dark cycle. The diet (ABDIET@PICOLAB®, PMI Nutrition International LLC, Arden Hills, MN, USA) and water were provided ad libitum. Mice experiments were performed following ARRIVE guidelines 2.0, with approval from the Georgia State University Institutional Animal Care and Use Committee (IACUC, Protocol #A20039).
An AOM/DSS-induced CAC mouse model (C57BL/6J) was used to test the anti-cancer effects of free M13, NL, and M13-NL. […] Healthy mice were used as the control group (WT group).
Histological assessments of the colon tissues from AOM/DSS-induced CAC mice were performed. […] Immunofluorescence (IF) staining of apoptotic cells (TUNEL) and immunohistochemical (IHC) staining of Ki-67 were used to investigate the pro-apoptotic and anti-proliferative effects of M13-NL in vivo.

In another data set the test system is Vero cells. The following applies: added one-hour post-infection setting.
Data set [2] concerns 3D-cultured Caco-2/BBe cells. In words: 3D droplet-based cell spheroid model, long-term cytotoxicity. The following applies: Homo sapiens, Caco-2, 264 h, 11 days. As to the method: To assess the long-term cytotoxicity of M13 against cancer cells, a 3D droplet-based Caco-2/BBe cell spheroid model was established using 3D printing. The diameter of the 3D cell spheres was approximately 1.65-1.75 mm. The 3D-cultured cells were incubated with different concentrations of M13 for 11 days, and droplet size (calculated using scanned images) and viability (live/dead cell staining and intracellular ATP) were analyzed (FIG. 12C). […] The cell viability of the M13-treated spheres was normalized as a percentage of the negative control (NC, 100% viable, without M13 treatment).

A further data set has as its system Tester strain TA98. In words: Ames test (bacterial reverse mutation), strain TA98. The following applies: TA98, all tested concentrations. Type of data set: cell-based, Salmonella typhimurium. As to the method:
The mutagenic potential of M13 was assessed using the Ames test. The Ames test, or bacterial reverse mutation test, introduced by Bruce Ames and his group in the early 1970s, is currently widely employed to assess the mutagenic potential of chemical compounds. In this biological assay, several strains of Salmonella ryphimurium carrying mutations in genes responsible for histidine synthesis are used, so these strains cannot produce this critical amino acid. […]
M13 at concentrations of […] and positive (NaN3; 2-nitrofluorene (NF) and 2-amonoanthracene) and negative (PBS) controls were tested on two tester strains; TA98 reverted from histidine dependence (auxotrophy) to histidine independence (prototrophy) by frameshift mutagens and tester TA100 reverted by mutagens that cause both frameshift and base pair substitution mutations. The colony numbers on the negative, positive control and M13 treated plates were determined by manual counting. The mean number of revertants per plate, the standard deviation, and the mutation factor (i.e., mean number of revertants on the test item plate/mean number of revertants on the vehicle plate) were calculated.
Next, the mutagenic potential of M13 using a Salmonella typhimurium reverse mutation assay were assessed (Ames test). […]
A general note: The Ames test uses bacterial strains that need an amino acid and regain growth without it when mutated back.

The test system of data set [3] is normal lung cells (IMR-90). The following applies: cited from earlier work.
The subject of data set [4] is human colon cancer cells (HCT-116). The following applies: cited from earlier work.
Data set [5] in a line: Incubation with mouse intestinal microsomes (HPLC). The following applies: mouse, intestinal microsomes; incubation for 30 minutes; read-out: relative content retained of the input. It counts as in vitro ADME. An excerpt:
The biopharmaceutical properties of the synthesized M13 (5-glutathione-6-shogaol) were characterized.

Each structure is given as a SMILES string. Entries after “also recorded” stand apart in the source; their conditions may differ.

Method for Vero cells: Virus and formulations were then left on the cells for the entire duration of the experiment (24 hours). The cytotoxicity of the same range of concentrations of formulations was determined by MTT assay.
The antiviral plates were incubated for 1 hour at 37° C., 5% CO2. The cytotoxicity plates were incubated for 24 hours at 37° C., 5% CO2.
After 24 hours, the infection plates were washed with PBS, fixed for 30 minutes with 4% formaldehyde, washed again with PBS, and stored in PBS at 4° C. until staining. The cytotoxicity plate was treated with MTT to determine cell viability.
Cytotoxicity was detected by MTT assay. Briefly, the MTT reagent (Sigma, M5655) was added to the cells for 2 hours at 37° C., 5% CO2, after which the media was removed, and the precipitate solubilized with a mixture of 1:1 Isopropanol: DMSO for 20 minutes. The supernatant was transferred to a clean plate and signal was read at 570 nm.

Consider `CCCCCC(CC(=O)CCc1ccc(O)c(OC)c1)SCC(NC(=O)CCC(N)C(=O)O)C(=O)NCC(=O)O` (centres unmarked) [M13, 5-glutathione-6-shogaol], for which the “fold by which IC50 against HIEC-6 is higher” value came out at 6 fold in the data set with Caco-2/BBe cells (HIEC-6 vs Caco-2/BBe), 5.8 fold with HC-CSC (HIEC-6 vs HC-CSC) and 2.5 fold in the data set with HCT-116 (HIEC-6 vs HCT-116). In addition, the half-maximal inhibitory concentration (IC50) (in general, the midpoint of a concentration-inhibition curve) stood at 16.7 µM in the data set with Caco-2/BBe cells (Homo sapiens, Caco-2, 24 h); 17.4 µM in the data set on HC-CSC (Homo sapiens, 24 h incubation); 40.1 µM with HCT-116 (Homo sapiens, HCT-116, 24 h incubation). The number of tumors entry in data set [1] is “failed to reduce the number of tumors”. For the same compound, the toxicity result (in the data set with Vero cells; in data set [3]) was “low toxicity” each time. The minimal effective concentration in data set [2] (read-out: M13 concentration at which green fluorescence intensity is significantly lower than NC, live/dead staining) was over 80 µM. Besides, the EC50 in data set [2] (ATP content, extrapolated dose-response curve, read-out: half-maximal effective concentration (EC50)) is 182 µM. Also, the revertant colony numbers result in the data set with Tester strain TA98 is listed as “did not demonstrate an increase in revertant colony numbers; also recorded: did not increase the number of revertant colonies”. Further, the bioactivity result in data set [4] is listed as “exhibited bioactivity”. Moreover, the remaining at 0.5 h in data set [5] was 86%.
